Assay results as given in patent US9492424B2, “Muscle atrophy inhibitor” (MORINAGA MILK INDUSTRY CO., LTD., priority 2011, dated 2016).

Columns and labels:
MuRF1 gene = assay: expression amount of MuRF1 gene in tibialis anterior muscle by real time PCR; assay type: in vivo, rat; details: Example 3
Source text: (§1) The tibialis anterior muscles collected in Example 1 mentioned above were used to evaluate expression amounts of genes that participate in muscle atrophy.
(§2) The tibialis anterior muscle was frozen in liquid nitrogen immediately after the collection, and homogenized in Trizol Reagent (Invitrogen), and the total RNA was extracted by using RNeasy Mini Kit (QIAGEN). cDNA was obtained by the total RNA by using High Capacity cDNA Reverse Kit (ABI). The cDNA, primers for amplifying each of the atrogin-1, MuRF1, and myostatin genes (ABI), and Taqman Fast Universal PCR Master Mix (ABI) were mixed, and expression amount of each gene in the test sample was relatively quantified by the real time PCR method, with taking the gene expression amount in the DEX group as 1. In statistical analysis, it was determined whether there were statistically significant differences between the values obtained for the DEX group and the values obtained for the other groups according to the Dunnett test.
(§3) In Examples 1 and 2, 1 mass % of the extract of Citrus depressa was added to the feed, and fed. […]

atrogin-1 gene = assay: expression amount of atrogin-1 gene in tibialis anterior muscle by real time PCR; assay type: in vivo, rat; details: Example 3
Source text: as §1, §2, §3

| SMILES | expression amount of the MuRF1 gene relative to DEX group taken as 1.0 (MuRF1 gene; eight-month old SD rats, 0.0004 mass % in feed for two weeks, dexamethasone) | ingestion amount with which the effect can be expected (MuRF1 gene; from feed intake and body weight of the TAN group, 19 days ingestion) | expression amount of the atrogin-1 gene relative to DEX group taken as 1.0 (atrogin-1 gene; eight-month old SD rats, 0.0007 mass % in feed for two weeks, dexamethasone) | ingestion amount with which the effect can be expected (atrogin-1 gene; from feed intake and body weight of the NOB group, 19 days ingestion) |
| --- | --- | --- | --- | --- |
| COc1ccc(-c2cc(=O)c3c(OC)c(OC)c(OC)c(OC)c3o2)cc1 [TAN, tangeretin] | 0.77±0.35 | about 0.1 mg/kg/day |  |  |
| COc1ccc(-c2cc(=O)c3c(OC)c(OC)c(OC)c(OC)c3o2)cc1OC [NOB, nobiletin] |  |  | 0.85±0.29 | about 0.2 mg/kg/day |
